Source: patent publication US4883797A, “Derivatives of piperazine, method for making the same” (Ferrer Internacional, S.A., priority 1982, dated 1989)

Key:
cerebral flow = test: Cerebral flow change by electromagnetic flowmetry, anesthetized dogs; type: in vivo; conditions: endovenous, 5 mg/kg, variation over mean values before testing
Protocol: (§1) Both parameters have been measured by electromagnetic flowmetry (Narcomatic-Electromagnetic flowmeter) on 12 anesthetized dogs. The hemodynamic parameter average of animals before testing were pO2 =95.40±3.98; pCO2 =34.31.congruent.2.38 and pH-7.297±0.315 by endovenously administering the compounds of a 5 mg/kg dosis.

carotid flow = test: Carotid flow change by electromagnetic flowmetry, anesthetized dogs; type: in vivo; conditions: endovenous, 5 mg/kg, variation over mean values before testing
Protocol: as §1

arterial pressure = test: Mean arterial pressure determined simultaneously with cerebral and carotid flows, anesthetized dogs; type: in vivo; conditions: endovenous, 5 mg/kg, variation over mean values before testing
Protocol: (§2) The measurements of cerebral and carotid flow changes (parameters 4 and 5) have been made using the most sophisticated methods. Both parameters have been measured by electromagnetic flowmetry (Narcomatic-Electromagnetic flowmeter) on 12 anesthetized dogs. The hemodynamic parameter average of animals before testing were pO2 =95.40±3.98; pCO2 =34.31.congruent.2.38 and pH-7.297±0.315 by endovenously administering the compounds of a 5 mg/kg dosis.
(§3) Simultaneously with the measuring of cerebral and carotid flows, the mean arterial pressure and cerebral vascular resistance (parameters 6,7) in each animal was determined. These parameters were measured according to the conventional method in Cardiovascular Pharmacology and the values were tabulated as the variation rate (Increase or Decrease) over mean values before testing.

[1] = tested on: cerebral vascular resistance; test: Cerebral vascular resistance determined simultaneously with cerebral and carotid flows, anesthetized dogs; type: in vivo; conditions: endovenous, 5 mg/kg, variation over mean values before testing
Protocol: as §2, §3

mice [2] = conditions: endovenous
mean arterial pressure = test: Decrease in mean arterial pressure (hypotension), anesthetized rats, endovenous; type: in vivo; conditions: for ED50: Rattus norvegicus, iv
Description: (§4) The decrease in arterial pressure (Parameter 2) and the effects on heart rate (Parameter 3) have been evaluated according to the usual conventional methods used in Cardiovascular Pharmacology.

heart rate = test: Effect on heart rate (bradycardia), anesthetized rats, endovenous; type: in vivo; conditions: for ED50: Rattus norvegicus, iv
Description: as §4

mice [3] = test: Antiarrhythmic activity, method of Ferrini et al, endovenous administration to mice; type: in vivo; conditions: for ED50: Mus musculus, iv, read-out: Antiarrythmic activity ED50
Description: Antiarrhythmic activity (Parameter 1) has been determined according to the method of Ferrini et al (Arzn.-Forsch., 29 (II), 9a, 1947-77, 1979).

in vivo = conditions: mouse, iv

Compound	Cerebral flow Increase (cerebral flow)	Carotid flow Decrease (carotid flow)	Arterial pressure Decrease (arterial pressure)	Cerebral vascular resistance Decrease [1]	Acute toxicity LD50 (mice [2])	Mean arterial pressure, Hypotension ED50 (mean arterial pressure)	Heart rate, Bradycardia ED50 (heart rate)	Antiarrythmic activity ED50 (mice [3])	ED50 (mean arterial pressure)	ED50 (heart rate)	ED50 (mice [3])	LD50 (in vivo)
C(=C\c1ccccc1)/CN1CCN(C(c2ccccc2)c2ccccc2)CC1 [Cinnarizine 2HCI, reference compound]	76.7%	62.8%	43.0%	68.0%	–	–	–	–	–	–	–	–
C=CCN1CCN(C(c2ccccc2)c2ccccc2)CC1 [Aligeron 2HCI, reference compound]	64.0%	21.3%	36.0%	61.0%	38.5 ± 1.06 mg/kg	1.3 mg/kg	4.8 mg/kg	4.4 mg/kg	–	–	–	–
O=C1NCC(CN2CCN(C(c3ccccc3)c3ccccc3)CC2)O1 (stereo not drawn) [Compound 15]	38.5%	60.0%	45.5%	60.3%	–	–	–	–	1.2 mg/kg	3 mg/kg	16.5 mg/kg	40 ± 4.19 mg/kg
O=C(CCCN1CCN(C(c2ccccc2)c2ccccc2)CC1)c1ccccc1 [Compound 11]	81.0%	40.9%	50.0%	74.0%	–	–	–	–	0.43 mg/kg	2.1 mg/kg	6.9 mg/kg	21 ± 1.72 mg/kg
CCOC(=O)C=CCN1CCN(C(c2ccccc2)c2ccccc2)CC1 [Compound 7]	32.0%	13.0%	27.3%	44.7%	–	–	–	–	2.1 mg/kg	3.8 mg/kg	23 mg/kg	100 ± 6.27 mg/kg
C=C(CN1CCCCC1)CN1CCN(C(c2ccccc2)c2ccccc2)CC1 [Compound 6, 1-Benzhydryl-4-(2-(1-piperidinylmethyl)-2-propenyl)piperazine]	70.0%	22.0%	58.0%	75.3%	–	–	–	–	1.5 mg/kg	1.7 mg/kg	4.3 mg/kg	8.6 ± 0.54 mg/kg
c1ccc(C(c2ccccc2)N2CCN(CCCC3(c4ccccc4)OCCO3)CC2)cc1 [Compound 13]	140.1%	25.7%	35.0%	73.1%	–	–	–	–	1.5 mg/kg	2.6 mg/kg	4 mg/kg	42.5 ± 3.05 mg/kg
Cl.Cl.c1ccc(C(c2ccccc2)N2CCN(CC3CC3)CC2)cc1 [Compound 1, 1-Benzhydryl-4-cyclopropylmethyl-piperazine dihydrochloride]	55.0%	68.0%	30.0%	55.0%	–	–	–	–	2.7 mg/kg	3.4 mg/kg	4.2 mg/kg	25.6 ± 4.39 mg/kg
